Laboratory results published in patent US8058309B2, “Protein kinase modulators and therapeutic uses thereof” (Novotyr Therapeutics Ltd., priority 2006, dated 2011).
pIC50: −log10 of the molar value.

Columns and labels:
[1] = system: B16 tumors; test: Melanoma B16 tumor growth; type: in vivo, nude mice; settings: IP, 20 mg/kg, 1/day
Experimental: (§1) Human hormone-refractory prostate cancer PC3 cells (ATCC, 1.5×10^6 cells per mouse) were injected subcutaneously into the right leg of Nude:Hsd mice (purchased from Harlan). Ten days later, when palpable tumors had developed, mice were divided into 3 groups with similar average tumor size. […] The mice treated with compound 7 group were daily injected with compound 7 dissolved in the below described vehicle, and the vehicle-treated group (veh) was daily injected by the vehicle alone. Vehicle included 4.4% DMSO, 1.2% Ethanol and 50% PEG400 in DDW; Groups were composed of 3 mice per group. Dose administered IP was 50 mg/Kg (4 ml/Kg) once a day for one month. The length (l) and the width (w) of the tumors were measured every day and the volumes of the tumors were calculated as follows: v=1w^2/2. Graphs present average volumes of the tumors versus time in days. The procedure was followed for the other described in-vivo studies with the following modifications:
The mouse B16 melanoma cells (1.5×10^6 cells per mouse) were injected subcutaneously into the right leg of male Nude:Hsd mice (purchased from Harlan). Inhibitors were injected IP daily at a dose of 20 mg/kg dissolved in 4.4% % DMSO, 1.2% EtOH, 33% PEG-400 in DDW at volume of 4 ml/kg.

[2] = target: T1, EGFR (Homo sapiens, UniProt P00533); test: EGFR activation and EGF-induced signaling in PC3 cells; type: cell-based; settings: EGF stimulation
T1 construct: endogenous in cells; host or cells: PC3
Experimental: (§2) Tyrosine autophosphorylation of the β-subunit of IGF1R as well as downstream signaling induced by IGF1R were assayed in breast cancer MCF7 cells. Tyrosine autophosphorylation of the EGFR and the EGFR signaling was assayed in prostate cancer PC3 cells. Tyrosine autophosphorylation of the PDGFR and its signaling was assayed in fibroblasts overexpres sing PDGFR. Tyro sine autophosphorylation of the IR and its signaling was assayed in fibroblasts overexpressing IR. Cells were seeded in 6-well plates (MCF7-250,000 cells/well, PC3-150,000 cells/well, fibroblasts-140,000 cells/well) and 24 hours later medium was replaced by serum-free medium (DMEM supplemented with 100 units/ml penicillin and 100 μg/ml streptomycin). Following 20 hours of serum-starvation medium was replaced with medium containing various concentrations of the inhibitors in 0.1% DMSO for additional 4 hours. Cells were then stimulated for 5 min with 50 ng/ml IGF-1 (MCF7 cells), 20 ng/ml EGF (PC3 cells), 50 ng/ml PDGF (fibroblasts overexpressing PDGFR) or 100 nM insulin (fibroblasts overexpressing IR), washed twice with PBS and lysed by boiling sample buffer (10% glycerol, 50 mM Tris-HCl, pH 6.8, 3% SDS, and 5%, β-mercaptoethanol). Equal amounts of protein per lane were separated by 8% SDS-PAGE and transferred to a nitrocellulose membrane (Sartorius AG). […]

[3] = target: T2, IGF1R (Homo sapiens, UniProt P08069); test: Inhibition of IGF1-induced signaling in intact MCF7 cells (western blot); type: cell-based; settings: for Inhibition of IGF1R autophosphorylation and IGF1-induced signaling (IRS1 pTyr, Akt/PKB, MAPK/ERK): 4 h exposure, IGF1 stimulation
T2 construct: made in house
Experimental: Tyrosine autophosphorylation of the β-subunit of IGF1R as well as downstream signaling induced by IGF1R were assayed in breast cancer MCF7 cells. Tyrosine autophosphorylation of the EGFR and the EGFR signaling was assayed in prostate cancer PC3 cells. Tyrosine autophosphorylation of the PDGFR and its signaling was assayed in fibroblasts overexpres sing PDGFR. Tyro sine autophosphorylation of the IR and its signaling was assayed in fibroblasts overexpressing IR. Cells were seeded in 6-well plates (MCF7-250,000 cells/well, PC3-150,000 cells/well, fibroblasts-140,000 cells/well) and 24 hours later medium was replaced by serum-free medium (DMEM supplemented with 100 units/ml penicillin and 100 μg/ml streptomycin). Following 20 hours of serum-starvation medium was replaced with medium containing various concentrations of the inhibitors in 0.1% DMSO for additional 4 hours. Cells were then stimulated for 5 min with 50 ng/ml IGF-1 (MCF7 cells), 20 ng/ml EGF (PC3 cells), 50 ng/ml PDGF (fibroblasts overexpressing PDGFR) or 100 nM insulin (fibroblasts overexpressing IR), washed twice with PBS and lysed by boiling sample buffer (10% glycerol, 50 mM Tris-HCl, pH 6.8, 3% SDS, and 5%, β-mercaptoethanol). Equal amounts of protein per lane were separated by 8% SDS-PAGE and transferred to a nitrocellulose membrane (Sartorius AG). Phosphorylated proteins were immunoblotted with anti-phospho-IGF1R (phosphor-IGF1R), anti-phosphotyrosine-IRS1 (phospho-IRS1), anti-phospho(T308)Akt (phospho-PKB), anti-phospho-Erk (phospho-ERK), anti-phosphotyrosine 4G10&PY20 (pY-EGFR or pY-PDGFR), anti-phospho-Ser^636/639-IRS1 (pS^636/639-IRS1) and anti-phospho-STAT3 (phospho-STAT3) antibodies. Detection was performed with horseradish peroxidase-conjugated secondary antibody using the ECL system. Blots were then stripped of antibodies, blocked with TBST with 5% low fat milk and re-probed with antibodies detecting both the phosphorylated and the non-phosphorylated corresponding proteins e.g. IGF1Rβ, IRS1, PKB, ERK, IRβ, PDGFR and Stat3.

[4] = system: MEK; test: MEK activity in cells (ERK phosphorylation); type: cell-based
Experimental: as §2

[5] = system: PC3 tumors; test: Hormone-refractory prostate cancer PC3 xenograft tumor growth; type: in vivo, nude mice
Experimental: as §1, with “modifications: […]” for “modifications:”

[6] = target: T3, IR (Homo sapiens, UniProt P06213); test: Insulin receptor activation and signaling in fibroblasts overexpressing IR; type: cell-based; settings: fibroblasts over-expressing IR, insulin stimulation
T3 construct: expressed in transfected cells; host or cells: NIH3T3 fibroblasts over expressing IR
Experimental: as §2

[7] = system: Panc1 tumors; test: Pancreatic cancer Panc1 xenograft tumor growth; type: in vivo, nude mice; settings: intratumoral, 1/day, 125 μg/day
Experimental: as §1
Human pancreatic cancer Pancl cells (2×10^6 cells per mouse) were injected subcutaneously into the right leg of male Nude:Hsd mice (purchased from Harlan). Compound 7 was injected intratumorally (IT) daily at doses of 125 μg/mouse in 0.06% DMSO and 2.16% PEG400 in saline.

[8] = target: T4, PDK (Homo sapiens, UniProt O15530); test: PDK activity in cells (PKB Thr308 phosphorylation); type: cell-based
T4 construct: endogenous in cells
Experimental: as §2

[9] = Body weight of treated nude mice; type: in vivo; settings: IP, 1/day, 50 mg/kg, over 4 weeks
Experimental: as §1, with “modifications: […]” for “modifications:”

[10] = system: PDGFR; test: PDGFR activation and signaling in fibroblasts overexpressing PDGFR; type: cell-based; settings: fibroblasts over-expressing PDGFR, PDGF stimulation
Experimental: as §2

[11] = system: primary keratinocytes; test: In-vitro inhibition of keratinocyte growth; type: cell-based; settings: growth factor enriched medium
Experimental: Primary keratinocytes were seeded in 96-well plates in growth factor enriched medium. After 48 hours medium was refreshed and compound 7 was added at the indicated concentrations (0 is 0.1% DMSO which was kept constant in all wells). Every 24 hours medium and compound 7 were refreshed, and 5 days following seeding cells were fixed with 0.5% gluteraldehide for 10 min, stained with Methylene-Blue. Access stain was washed away and the bound stain was extracted by 0.1N HCl. Absorbance at 620 nm wavelength was read in ELISA reader.

T2 sequence (P08069 31-1367, species assumed): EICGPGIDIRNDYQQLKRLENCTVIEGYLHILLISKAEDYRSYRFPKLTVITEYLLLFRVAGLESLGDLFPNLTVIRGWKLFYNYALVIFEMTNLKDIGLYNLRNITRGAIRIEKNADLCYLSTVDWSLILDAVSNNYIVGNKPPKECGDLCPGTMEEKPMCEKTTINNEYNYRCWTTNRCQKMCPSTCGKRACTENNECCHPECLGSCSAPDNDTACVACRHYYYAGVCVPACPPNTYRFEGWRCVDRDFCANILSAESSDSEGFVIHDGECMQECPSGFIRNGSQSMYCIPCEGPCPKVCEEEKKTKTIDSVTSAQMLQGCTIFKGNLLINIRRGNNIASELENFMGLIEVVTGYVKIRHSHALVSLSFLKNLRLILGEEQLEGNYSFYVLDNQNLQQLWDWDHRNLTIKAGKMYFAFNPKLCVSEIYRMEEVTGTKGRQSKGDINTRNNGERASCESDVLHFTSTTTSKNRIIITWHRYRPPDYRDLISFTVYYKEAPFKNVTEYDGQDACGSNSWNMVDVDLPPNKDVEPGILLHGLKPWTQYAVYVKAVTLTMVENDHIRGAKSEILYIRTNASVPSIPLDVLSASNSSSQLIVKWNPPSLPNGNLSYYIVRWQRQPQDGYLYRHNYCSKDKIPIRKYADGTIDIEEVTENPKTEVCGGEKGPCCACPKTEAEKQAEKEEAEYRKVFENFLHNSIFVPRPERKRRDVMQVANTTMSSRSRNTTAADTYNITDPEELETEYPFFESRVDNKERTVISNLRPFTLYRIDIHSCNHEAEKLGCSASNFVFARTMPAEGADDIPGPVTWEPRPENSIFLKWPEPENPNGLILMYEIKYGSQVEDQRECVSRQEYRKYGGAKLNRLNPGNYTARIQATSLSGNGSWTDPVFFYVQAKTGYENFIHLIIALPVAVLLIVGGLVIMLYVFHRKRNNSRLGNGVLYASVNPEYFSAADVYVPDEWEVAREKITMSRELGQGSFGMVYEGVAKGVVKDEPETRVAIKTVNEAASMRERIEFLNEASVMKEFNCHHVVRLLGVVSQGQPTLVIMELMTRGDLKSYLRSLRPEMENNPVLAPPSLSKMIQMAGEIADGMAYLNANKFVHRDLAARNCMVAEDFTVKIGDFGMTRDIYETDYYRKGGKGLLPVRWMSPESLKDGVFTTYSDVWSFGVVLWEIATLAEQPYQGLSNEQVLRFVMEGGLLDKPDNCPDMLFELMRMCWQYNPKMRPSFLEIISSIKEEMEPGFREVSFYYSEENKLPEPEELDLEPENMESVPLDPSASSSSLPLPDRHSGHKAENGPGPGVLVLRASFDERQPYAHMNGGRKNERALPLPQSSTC
T1 sequence (P00533 25-1210): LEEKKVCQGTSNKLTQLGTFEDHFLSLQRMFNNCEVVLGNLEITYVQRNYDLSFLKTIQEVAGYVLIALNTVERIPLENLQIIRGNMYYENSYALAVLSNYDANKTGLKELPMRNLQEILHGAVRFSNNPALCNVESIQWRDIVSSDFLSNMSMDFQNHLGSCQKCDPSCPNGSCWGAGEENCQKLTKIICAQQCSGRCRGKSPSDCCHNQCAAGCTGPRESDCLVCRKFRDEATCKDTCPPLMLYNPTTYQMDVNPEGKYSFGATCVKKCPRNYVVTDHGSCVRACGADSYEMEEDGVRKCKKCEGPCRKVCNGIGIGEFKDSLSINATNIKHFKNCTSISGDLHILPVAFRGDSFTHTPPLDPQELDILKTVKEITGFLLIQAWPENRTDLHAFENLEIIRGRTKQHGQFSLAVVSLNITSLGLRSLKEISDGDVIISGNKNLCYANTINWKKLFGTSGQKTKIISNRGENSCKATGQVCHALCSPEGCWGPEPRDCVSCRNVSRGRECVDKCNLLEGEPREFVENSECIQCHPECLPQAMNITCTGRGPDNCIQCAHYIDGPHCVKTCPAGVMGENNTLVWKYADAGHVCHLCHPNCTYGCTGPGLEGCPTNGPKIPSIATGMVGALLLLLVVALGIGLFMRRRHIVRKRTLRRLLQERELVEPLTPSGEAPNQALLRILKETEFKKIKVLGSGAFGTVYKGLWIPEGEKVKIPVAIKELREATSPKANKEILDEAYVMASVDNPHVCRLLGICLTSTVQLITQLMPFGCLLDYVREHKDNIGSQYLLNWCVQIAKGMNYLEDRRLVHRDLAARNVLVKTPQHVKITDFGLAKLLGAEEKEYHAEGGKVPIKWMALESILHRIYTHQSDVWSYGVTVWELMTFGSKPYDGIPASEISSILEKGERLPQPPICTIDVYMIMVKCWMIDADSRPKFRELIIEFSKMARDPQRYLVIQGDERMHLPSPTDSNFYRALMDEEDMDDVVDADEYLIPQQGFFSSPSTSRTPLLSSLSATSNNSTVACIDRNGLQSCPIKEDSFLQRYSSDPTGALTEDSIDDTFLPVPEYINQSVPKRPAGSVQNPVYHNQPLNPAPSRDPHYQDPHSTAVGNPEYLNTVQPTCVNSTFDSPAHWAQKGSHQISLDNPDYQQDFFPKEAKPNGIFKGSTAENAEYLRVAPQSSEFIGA
T4 sequence (O15530 whole entry): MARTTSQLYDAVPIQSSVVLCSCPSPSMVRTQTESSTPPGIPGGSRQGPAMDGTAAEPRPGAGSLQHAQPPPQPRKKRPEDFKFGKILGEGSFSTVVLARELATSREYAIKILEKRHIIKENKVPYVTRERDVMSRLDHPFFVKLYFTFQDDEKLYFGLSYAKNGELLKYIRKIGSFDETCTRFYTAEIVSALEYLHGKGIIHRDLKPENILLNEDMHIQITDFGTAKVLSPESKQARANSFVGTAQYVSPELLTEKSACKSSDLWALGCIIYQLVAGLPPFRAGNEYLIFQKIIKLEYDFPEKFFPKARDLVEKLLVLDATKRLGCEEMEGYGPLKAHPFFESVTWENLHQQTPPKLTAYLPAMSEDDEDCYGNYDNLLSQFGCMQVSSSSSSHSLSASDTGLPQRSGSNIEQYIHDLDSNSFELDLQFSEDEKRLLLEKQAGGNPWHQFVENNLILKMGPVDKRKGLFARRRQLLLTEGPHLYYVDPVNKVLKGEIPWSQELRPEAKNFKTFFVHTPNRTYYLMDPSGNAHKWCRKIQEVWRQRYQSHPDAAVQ
T3 sequence (P06213 28-1382): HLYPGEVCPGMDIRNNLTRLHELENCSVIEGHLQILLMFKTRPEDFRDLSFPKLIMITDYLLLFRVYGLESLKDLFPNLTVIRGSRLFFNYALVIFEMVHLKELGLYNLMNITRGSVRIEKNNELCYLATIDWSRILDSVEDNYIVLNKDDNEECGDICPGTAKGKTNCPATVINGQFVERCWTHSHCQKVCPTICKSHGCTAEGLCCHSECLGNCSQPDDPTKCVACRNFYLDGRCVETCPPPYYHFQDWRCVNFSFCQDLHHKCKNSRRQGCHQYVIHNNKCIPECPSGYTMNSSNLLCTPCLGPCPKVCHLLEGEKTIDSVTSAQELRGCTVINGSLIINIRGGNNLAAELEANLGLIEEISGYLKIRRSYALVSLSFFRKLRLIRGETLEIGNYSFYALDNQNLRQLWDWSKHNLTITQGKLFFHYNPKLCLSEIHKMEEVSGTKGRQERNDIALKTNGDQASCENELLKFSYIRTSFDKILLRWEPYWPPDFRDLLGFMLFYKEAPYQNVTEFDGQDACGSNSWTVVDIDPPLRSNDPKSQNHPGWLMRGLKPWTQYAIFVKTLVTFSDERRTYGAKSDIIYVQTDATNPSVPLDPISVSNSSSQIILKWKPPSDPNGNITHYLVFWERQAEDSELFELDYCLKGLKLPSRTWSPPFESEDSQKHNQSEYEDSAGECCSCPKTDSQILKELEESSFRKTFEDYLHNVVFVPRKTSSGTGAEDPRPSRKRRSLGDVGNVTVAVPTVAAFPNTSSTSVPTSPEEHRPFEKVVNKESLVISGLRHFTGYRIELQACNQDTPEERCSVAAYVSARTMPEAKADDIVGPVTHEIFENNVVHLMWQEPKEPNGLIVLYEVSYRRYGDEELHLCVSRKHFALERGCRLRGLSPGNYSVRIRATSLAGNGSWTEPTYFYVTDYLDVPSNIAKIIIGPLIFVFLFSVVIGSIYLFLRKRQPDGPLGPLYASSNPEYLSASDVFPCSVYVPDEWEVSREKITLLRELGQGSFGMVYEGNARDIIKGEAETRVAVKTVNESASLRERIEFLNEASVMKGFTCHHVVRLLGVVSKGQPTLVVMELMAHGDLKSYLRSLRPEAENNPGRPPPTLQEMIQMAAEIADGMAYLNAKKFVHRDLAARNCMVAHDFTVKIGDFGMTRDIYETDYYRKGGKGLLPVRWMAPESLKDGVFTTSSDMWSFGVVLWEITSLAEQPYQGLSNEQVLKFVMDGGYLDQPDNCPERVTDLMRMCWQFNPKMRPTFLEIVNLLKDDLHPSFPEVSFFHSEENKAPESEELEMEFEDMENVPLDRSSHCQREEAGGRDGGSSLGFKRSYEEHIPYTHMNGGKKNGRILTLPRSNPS

## N#C/C(=C\c1cc(O)c(O)c(Br)c1)C(=S)NCc1cc(O)c(O)c(Br)c1 [Compound 6]
[1]
  Growth inhibition of melanoma B16 tumors: significant inhibitory effect
[2]
  Inhibition of EGFR and EGF-induced signaling in intact cells: inhibited also EGFR
[3]
  Inhibition of IGF1R autophosphorylation and IGF1-induced signaling (IRS1 pTyr, Akt/PKB, MAPK/ERK): inhibited the autophosphorylation of IGF1R

## N#C/C(=C\c1cc(O)c(O)c(Br)c1)C(=S)NCc1cc(O)c(O)c(O)c1 [Compound 7]
[1]
  Growth inhibition of melanoma B16 tumors: significant inhibitory effect
[4]
  Inhibition of MEK (phosphorylation of ERK): not inhibited
[5]; IP, 1/day, 50 mg/kg, one month, vs vehicle treated and untreated
  Growth inhibition of HRPC PC3 tumors: 82%
[5]; intratumoral administration
  Efficacy on HRPC model by intratumoral administration: efficient
[6]
  Inhibition of IR in intact cells: inhibits
[2]
  Inhibition of EGFR and EGF-induced signaling in intact cells: inhibits
[7]
  Growth inhibition of pancreatic cancer Panc1 tumors: 50%
[3]
  Inhibition of IGF1R autophosphorylation and IGF1-induced signaling (IRS1 pTyr, Akt/PKB, MAPK/ERK): dramatically inhibited
[3]; read-out: IC50 in inhibition of the Akt/PKB pathway downstream IGF1R
  pIC50: 5.70 to 6.00
[8]
  Inhibition of PDK (phosphorylation of PKB Thr308): not inhibited
[9]
  Effect on body weight of the mice: no significant effect
[10]
  Inhibition of PDGFR in intact cells: inhibits
[11]
  pIC50: 5.64
